What all share (type): functional
Test [1] concerns Haemophilus influenzae. The test can be described thus: Antibacterial activity against genetically beta-lactamase-positive amoxicillin-clavulanate-resistant Haemophilus influenzae type b with an amino acid substitution in highly mutated locus Ser-385 of ftsI gene by broth microdilution method. On the technique in general: Broth dilution looks for growth in wells or tubes with falling amounts of substance.

Test [2] concerns Haemophilus influenzae. The experiment in a line: Antibacterial activity against genetically beta-lactamase-negative ampicillin-susceptible Haemophilus influenzae type b without amino acid substitutions in ftsI gene and bla gene by broth microdilution method.
In test [3] the test system is Haemophilus influenzae. The test can be described thus: Antibacterial activity against genetically beta-lactamase-negative ampicillin-resistant Haemophilus influenzae type b with an amino acid substitution in variable mutated locus Asn-526 or Arg-517 of ftsI gene by broth microdilution method.
Test [4] concerns Haemophilus influenzae. The experiment in a line: Antibacterial activity against genetically beta-lactamase-negative ampicillin-resistant Haemophilus influenzae type b with an amino acid substitution in highly mutated locus Ser-385 of ftsI gene by broth microdilution method.
For test [5], the system named is Haemophilus influenzae. The test can be described thus: Antibacterial activity against genetically beta-lactamase-positive amoxicillin-clavulanate-resistant Haemophilus influenzae type b with an amino acid substitution in variable mutated locus Asn-526 or Arg-517 of ftsI gene by broth microdilution method.
Test [6] concerns Haemophilus influenzae. The test can be described thus: Antibacterial activity against genetically […] but without an amino acid substitution in ftsI gene by broth microdilution method.
In test [7] the test system is Haemophilus influenzae. The experiment in a line: Antibacterial activity against genetically beta-lactamase-negative ampicillin-susceptible Haemophilus influenzae type b without amino acid substitutions in ftsI gene and bla gene assessed as susceptibility rate by broth microdilution method.
For test [8], the system named is Haemophilus influenzae. The experiment in a line: Antibacterial activity against genetically beta-lactamase-negative ampicillin-resistant Haemophilus influenzae type b with an amino acid substitution in variable mutated locus Asn-526 or Arg-517 of ftsI gene assessed as susceptibility rate by broth microdilution method.
Test [9] has as its system Haemophilus influenzae. The test can be described thus: Antibacterial activity against genetically beta-lactamase-negative ampicillin-resistant Haemophilus influenzae type b with an amino acid substitution in highly mutated locus Ser-385 of ftsI gene assessed as susceptibility rate by broth microdilution method.
For test [10], the system named is Haemophilus influenzae. The experiment in a line: Antibacterial activity against genetically beta-lactamase-positive amoxicillin-clavulanate-resistant Haemophilus influenzae type b with an amino acid substitution in variable mutated locus Asn-526 or Arg-517 of ftsI gene assessed as susceptibility rate by broth microdilution method.
Test [11] relates to Haemophilus influenzae. The test can be described thus: Antibacterial activity against genetically beta-lactamase-positive amoxicillin-clavulanate-resistant Haemophilus influenzae type b with an amino acid substitution in highly mutated locus Ser-385 of ftsI gene assessed as susceptibility rate by broth microdilution method.
Test [12] relates to Haemophilus influenzae. The test can be described thus: Antibacterial activity against genetically […] but without an amino acid substitution in ftsI gene assessed as susceptibility rate by broth microdilution method.
Test [13] concerns Haemophilus influenzae. The test can be described thus: Antibacterial activity against genetically beta-lactamase-negative ampicillin-susceptible Haemophilus influenzae type b without amino acid substitutions in ftsI gene and bla gene assessed as resistance rate by broth microdilution method.
Test [14] concerns Haemophilus influenzae. The experiment in a line: Antibacterial activity against genetically beta-lactamase-negative ampicillin-resistant Haemophilus influenzae type b with an amino acid substitution in variable mutated locus Asn-526 or Arg-517 of ftsI gene assessed as resistance rate by broth microdilution method.
The subject of test [15] is Haemophilus influenzae. The experiment in a line: Antibacterial activity against genetically beta-lactamase-negative ampicillin-resistant Haemophilus influenzae type b with an amino acid substitution in highly mutated locus Ser-385 of ftsI gene assessed as resistance rate by broth microdilution method.
The subject of test [16] is Haemophilus influenzae. The test can be described thus: Antibacterial activity against genetically beta-lactamase-positive amoxicillin-clavulanate-resistant Haemophilus influenzae type b with an amino acid substitution in variable mutated locus Asn-526 or Arg-517 of ftsI gene assessed as resistance rate by broth microdilution method.
The test system of test [17] is Haemophilus influenzae. The experiment in a line: Antibacterial activity against genetically beta-lactamase-positive amoxicillin-clavulanate-resistant Haemophilus influenzae type b with an amino acid substitution in highly mutated locus Ser-385 of ftsI gene assessed as resistance rate by broth microdilution method.
In test [18] the test system is Haemophilus influenzae. The test can be described thus: Antibacterial activity against genetically […] but without an amino acid substitution in ftsI gene assessed as resistance rate by broth microdilution method.
Test [19] relates to Haemophilus influenzae. The test can be described thus: Antibacterial activity against beta-lactamase-negative ampicillin-resistant Haemophilus influenzae by Etest.
For test [20], the system named is Haemophilus influenzae. The experiment in a line: Antibacterial activity against beta-lactamase-negative ampicillin-resistant Haemophilus influenzae with mutation in AcrAB repressor gene […].

Values after ≈ are worked out from the molar mass of the structure shown.

Consider `CC1(C)S[C@@H]2[C@H](NC(=O)[C@H](N)c3ccccc3)C(=O)N2[C@H]1C(=O)O` [AMPICILLIN], for which the MIC50 is above 128 µg/mL in [1]; 0.5 µg/mL (≈ 1.43 µM) in test [2]; 0.5 µg/mL (≈ 1.43 µM) in [3]; 4 µg/mL (≈ 11.4 µM) in test [4]; 128 µg/mL in test [5]; 64 µg/mL (≈ 183 µM) in [6]. Further, the MIC90 in test [1] is above 128 µg/mL; in test [2] it was 0.5 µg/mL (≈ 1.43 µM); in test [3] it was 2 µg/mL (≈ 5.72 µM); in test [4] it was 16 µg/mL (≈ 45.8 µM); in test [5], 128 µg/mL; in test [6], above 128 µg/mL. Moreover, the Activity came to 100% in test [7]; 68.4% in test [8]; 9.5% in test [9]; 0% in test [10]; 0% in test [11]; 0% in [12]. Further, the Activity in test [13] was determined as 0%; in [14] it was 8.1%; in [15], 71.6%; in [16], 100%; in test [17] it was 100%; in test [18] it was 100%. Also, the figures for the MIC in test [19] and in test [20] were 256 µg/mL (≈ 733 µM) and 8 µg/mL (≈ 22.9 µM), respectively.

As to `CC[C@H]1OC(=O)[C@H](C)[C@@H](O[C@H]2C[C@@](C)(OC)[C@@H](O)[C@H](C)O2)[C@H](C)[C@@H](O[C@@H]2O[C@H](C)C[C@H](N(C)C)[C@H]2O)[C@](C)(O)C[C@@H](C)CN(C)[C@H](C)[C@@H](O)[C@]1(C)O` [AZITHROMYCIN], the MIC50 in test [2], in [3] and in [4] was 2 µg/mL (≈ 2.67 µM) throughout. Also, the MIC90 in [2], in [3] and in [4] was 4 µg/mL (≈ 5.34 µM) in each case. Moreover, the Activity came out at 98.8% in test [7]; 95.9% in [8]; 97.3% in test [9]; 1.2% in test [13]; 4.1% in [14]; 2.7% in test [15].

For the molecule `CO/N=C(\C(=O)N[C@@H]1C(=O)N2C(C(=O)OCOC(=O)C(C)(C)C)=C(/C=C\c3scnc3C)CS[C@H]12)c1csc(N)n1` [CEFDITOREN PIVOXIL], the MIC50 was at most 0.06 µg/mL in [2], at most 0.06 µg/mL in test [3] and 0.25 µg/mL (≈ 0.403 µM) in [4]. Besides, the MIC90 in [2] was at most 0.06 µg/mL; in test [3] it was 0.12 µg/mL (≈ 0.193 µM); in [4] it was 0.5 µg/mL (≈ 0.805 µM).

Turning to `COCC1=C(C(=O)O)N2C(=O)[C@@H](NC(=O)/C(=N\OC)c3csc(N)n3)[C@H]2SC1` [CEFPODOXIME], the MIC50 amounted to 0.12 µg/mL (≈ 0.281 µM) in test [2], 0.25 µg/mL (≈ 0.585 µM) in test [3] and 8 µg/mL (≈ 18.7 µM) in test [4]. The MIC90 worked out at 0.12 µg/mL (≈ 0.281 µM) in test [2], 2 µg/mL (≈ 4.68 µM) in [3] and 16 µg/mL (≈ 37.4 µM) in test [4]. Also, the Activity in test [7] worked out at 100%; in test [8], 90.8%; in test [9], 9.1%; in test [13] it was 0%; in [14], 9.2%; in test [15] it was 91.9%.

Take `CO/N=C(\C(=O)N[C@@H]1C(=O)N2C(C(=O)O)=C(COC(N)=O)CS[C@H]12)c1ccco1` [CEFUROXIME]: the figures for the MIC50 in [2], in test [3] and in test [4] were 1 µg/mL (≈ 2.36 µM), 2 µg/mL (≈ 4.71 µM) and 64 µg/mL (≈ 151 µM), respectively. Also, the MIC90 in test [2] was found to be 2 µg/mL (≈ 4.71 µM); in test [3] it was 16 µg/mL (≈ 37.7 µM); in [4] it was 128 µg/mL (≈ 302 µM). Besides, the Activity in [7] is reported as 97.7%; in test [8], 66.3%; in [9], 1.4%; in test [13] it was 1.2%; in [14] it was 21.4%; in test [15] it was 94.6%.

For `CC[C@H]1OC(=O)[C@H](C)[C@@H](O[C@H]2C[C@@](C)(OC)[C@@H](O)[C@H](C)O2)[C@H](C)[C@@H](O[C@@H]2O[C@H](C)C[C@H](N(C)C)[C@H]2O)[C@](C)(OC)C[C@@H](C)C(=O)[C@H](C)[C@@H](O)[C@]1(C)O` [CLARITHROMYCIN], the MIC50 in test [2], in test [3] and in test [4] was 8 µg/mL (≈ 10.7 µM) in each case. Besides, the MIC90 in test [2], in test [3] and in test [4] was 16 µg/mL (≈ 21.4 µM) in each case. The Activity stood at 79.3% in [7]; 75.5% in test [8]; 60.8% in test [9]; 3.5% in [13]; 2% in [14]; 0% in test [15].

Take `C[C@H]1COc2c(N3CCN(C)CC3)c(F)cc3c(=O)c(C(=O)O)cn1c23.C[C@H]1COc2c(N3CCN(C)CC3)c(F)cc3c(=O)c(C(=O)O)cn1c23.O` [LEVOFLOXACIN]: the MIC50 in [2], in [3] and in test [4] was at most 0.06 µg/mL throughout. The MIC90 in [2], in test [3] and in test [4] was at most 0.06 µg/mL in each case. The Activity was 100% in [7]; 100% in [8]; 100% in test [9]; 0% in [13]; 0% in test [14]; 0% in test [15].

`C[C@@H](O)[C@H]1C(=O)N2C(C(=O)O)=C(S[C@@H]3CN[C@H](C(=O)N(C)C)C3)[C@H](C)[C@H]12` [MEROPENEM]: the MIC50 in test [2] is at most 0.06 µg/mL; in [3], 0.12 µg/mL (≈ 0.313 µM); in test [4], 0.25 µg/mL (≈ 0.652 µM). Besides, the MIC90 in [2] is at most 0.06 µg/mL; in test [3], 0.25 µg/mL (≈ 0.652 µM); in [4] it was 0.5 µg/mL (≈ 1.3 µM). The Activity in test [7] turned out to be 100%; in [8], 100%; in [9] it was 90.5%; in test [13], 0%; in test [14], 0%; in [15] it was 9.5%.

In the case of `CC[C@H]1OC(=O)[C@H](C)C(=O)[C@H](C)[C@@H](O[C@@H]2O[C@H](C)C[C@H](N(C)C)[C@H]2O)[C@](C)(OC)C[C@@H](C)C(=O)[C@H](C)[C@H]2N(CCCCn3cnc(-c4cccnc4)c3)C(=O)O[C@]12C` [TELITHROMYCIN], the MIC50 in test [2], in [3] and in test [4] was 2 µg/mL (≈ 2.46 µM) in each case. For the same molecule, the MIC90 in test [2], in test [3] and in [4] was 4 µg/mL (≈ 4.93 µM) throughout. The Activity in test [7] came out at 97.7%; in [8], 93.9%; in [9] it was 87.8%; in [13], 0%; in test [14] it was 0%; in [15] it was 0%.

These data come from ChEMBL document CHEMBL1137636, “Genetic characteristics and clonal dissemination of beta-lactamase-negative ampicillin-resistant Haemophilus influenzae strains isolated from the upper respiratory tract of patients in Japan” (2007).
